Experimental data reported in patent US20130184302A1, “METHODS FOR TREATING IRRITABLE BOWEL SYNDROME (IBS) AND INFECTIONS” (priority 2011, published 2013).

Columns and labels:
[1] = system: subjects with IBS; assay: Sustained response and recurrence of symptoms after Primary Evaluation Period, rolling 4 weeks; format: in vivo, human
Protocol: An evaluation of the enrolled subjects was carried out after the Primary Evaluation Period in the study described in Examples 5-7. […] Subjects with no recurrence are defined as having a stool consistency score of less than 4, abdominal pain reduced by at least 30 percent or both.

[2] = system: C. difficile infection (CDI); assay: CDI trial: recurrence of CDI, recurrence rate per person-year; format: in vivo, human
Source text: Recurrence was defined to be a diarrhea and a positive C. diff stool toxin assay that occurred after initial clinical success.

[3] = Rolling 2-5 Weeks, First and Second Studies, Rifaximin (N = 624)
[4] = Rolling 3-6 Weeks, First and Second Studies
[5] = Rolling 4-7 Weeks, First and Second Studies
[6] = Rolling 4-7 Weeks, Rifaximin (N = 624)
[7] = Rolling 5-8 Weeks, First and Second Studies
[8] = Rolling 5-8 Weeks, Rifaximin (N = 624)
[9] = Rolling 6-9 Weeks, First and Second Studies
[10] = Rolling 6-9 Weeks, Rifaximin (N = 624)
[11] = Rolling 7-10 Weeks, First and Second Studies
[12] = Rolling 7-10 Weeks, Rifaximin (N = 624)
[13] = Rolling 8-11 Weeks, First and Second Studies
[14] = Rolling 8-11 Weeks, Rifaximin (N = 624)
[15] = Rolling 9-12 Weeks, First and Second Studies
[16] = Rolling 9-12 Weeks, Rifaximin (N = 624)
[17] = after initial clinical success, Rifaximin N = 67, Vancomycin N = 73
[18] = all subjects, Rifaximin N = 117, Vancomycin N = 115

## CO[C@H]1/C=C/O[C@@]2(C)Oc3c(C)c(O)c4c(O)c(c5c(nc6cc(C)ccn65)c4c3C2=O)NC(=O)/C(C)=C\C=C\[C@H](C)[C@H](O)[C@@H](C)[C@@H](O)[C@@H](C)[C@H](OC(C)=O)[C@@H]1C [Rifaximin, (2S,16Z,18E,20S,21S,22R, 23R,24R,25S,26S,27S,28E)-5,6,21,23,25 Pentahydroxy-27-methoxy-2,4,11,16,20,22,24,26-octamethyl-2,7-(epoxypentadeca-(1,11,13)trienimino) benzofuro (4,5-e) pyrido(1,2,-a) benzimidazole-1,15(2H)-dione,25-acetate]
[1]; First and Second Studies, Rifaximin (N = 624)
  Abdominal Pain or Stool Consistency: Sustained Durable Response: (28.8%)
[1]; Rifaximin (N = 624)
  Abdominal Pain & Stool Consistency: Sustained Durable Response: (33.2%)
  Abdominal Pain: Sustained Durable Response: (35.7%)
  Stool Consistency: Sustained Durable Response: (68.9%)
[1]; [3]
  Abdominal Pain or Stool Consistency: No Recurrence: (45.8%)
  Abdominal Pain or Stool Consistency: Recurrence: (1.9%)
[1]; [4]
  Abdominal Pain or Stool Consistency: No Recurrence: (43.9%)
  Abdominal Pain or Stool Consistency: Recurrence: (3.7%)
[1]; [5]
  Abdominal Pain or Stool Consistency: No Recurrence: (40.2%)
  Abdominal Pain or Stool Consistency: Recurrence: (2.7%)
[1]; [6]
  Abdominal Pain & Stool Consistency: No Recurrence: (48.2%)
  Abdominal Pain & Stool Consistency: Recurrence: (3.7%)
  Abdominal Pain: No Recurrence: (51.9%)
  Abdominal Pain: Recurrence: (3.8%)
  Stool Consistency: No Recurrence: (78.8%)
  Stool Consistency: Recurrence: (1.3%)
[1]; [7]
  Abdominal Pain or Stool Consistency: No Recurrence: (37.5%)
  Abdominal Pain or Stool Consistency: Recurrence: (2.6%)
[1]; [8]
  Abdominal Pain & Stool Consistency: No Recurrence: (44.6%)
  Abdominal Pain & Stool Consistency: Recurrence: (3.2%)
  Abdominal Pain: No Recurrence: (48.1%)
  Abdominal Pain: Recurrence: (3.0%)
  Stool Consistency: No Recurrence: (77.6%)
  Stool Consistency: Recurrence: (2.1%)
[1]; [9]
  Abdominal Pain or Stool Consistency: No Recurrence: (34.9%)
  Abdominal Pain or Stool Consistency: Recurrence: (1.6%)
[1]; [10]
  Abdominal Pain & Stool Consistency: No Recurrence: (41.3%)
  Abdominal Pain & Stool Consistency: Recurrence: (2.2%)
  Abdominal Pain: No Recurrence: (45.0%)
  Abdominal Pain: Recurrence: (2.4%)
  Stool Consistency: No Recurrence: (75.5%)
  Stool Consistency: Recurrence: (2.6%)
[1]; [11]
  Abdominal Pain or Stool Consistency: No Recurrence: (33.3%)
  Abdominal Pain or Stool Consistency: Recurrence: (1.6%)
[1]; [12]
  Abdominal Pain & Stool Consistency: No Recurrence: (39.1%)
  Abdominal Pain & Stool Consistency: Recurrence: (1.8%)
  Abdominal Pain: No Recurrence: (42.6%)
  Abdominal Pain: Recurrence: (2.4%)
  Stool Consistency: No Recurrence: (72.9%)
  Stool Consistency: Recurrence: (1.4%)
[1]; [13]
  Abdominal Pain or Stool Consistency: No Recurrence: (31.7%)
  Abdominal Pain or Stool Consistency: Recurrence: (1.3%)
[1]; [14]
  Abdominal Pain & Stool Consistency: No Recurrence: (37.3%)
  Abdominal Pain & Stool Consistency: Recurrence: (2.2%)
  Abdominal Pain: No Recurrence: (40.2%)
  Abdominal Pain: Recurrence: (2.2%)
  Stool Consistency: No Recurrence: (71.5%)
  Stool Consistency: Recurrence: (0.5%)
[1]; [15]
  Abdominal Pain or Stool Consistency: No Recurrence: (30.4%)
  Abdominal Pain or Stool Consistency: Recurrence: (1.6%)
[1]; [16]
  Abdominal Pain & Stool Consistency: No Recurrence: (35.1%)
  Abdominal Pain & Stool Consistency: Recurrence: (1.9%)
  Abdominal Pain: No Recurrence: (38.0%)
  Abdominal Pain: Recurrence: (2.2%)
  Stool Consistency: No Recurrence: (71.0%)
  Stool Consistency: Recurrence: (2.1%)
[2]; Rifaximin N = 117, Vancomycin N = 115
  Recurrence Rate per Person-Year Exposure: 0.613
[2]; Rifaximin vs Vancomycin, subjects with initial clinical success
  Recurrence of CDI: Treatment Difference: 4.7%
[2]; [17]
  No Recurrence of CDI, number of subjects: 61
  No Recurrence of CDI, percent of subjects: (91%)
  Recurrence of CDI, number of subjects: 6
  Recurrence of CDI, percent of subjects: (9%)
[2]; [18]
  Recurrence: No, number of subjects: 111
  Recurrence: No, percent of subjects: (95%)
  Recurrence: Yes, number of subjects: 6
  Recurrence: Yes, percent of subjects: (5%)
